From the supplement of paper PMC8967900 come the findings set out here.

Test systems include MHH-CALL-3; MOLT-14; 697.
Assay in all cases: selective drug sensitivity score (sDSS, relative to normal bone marrow) (sDSS (score)); higher = more potent and effective on the cell line relative to normal bone marrow cells
Common to all, as to conditions: 72 h

SMILES strings stand for the structures.
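Also: ALL cell lines in 384-well plates, five doses spanning 10,000-fold, each plate scaled between vehicle and 100 µmol/L benzalkonium chloride controls, sDSS an adapted area-under-curve metric.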

On to `COc1cc2ncnc(Nc3ccc(F)c(Cl)c3)c2cc1OCCCN1CCOCC1` [Gefitinib] (top concentration 10000 nM), for which the figures for the “selective drug sensitivity score” value in the test with MHH-CALL-3, in the test on MOLT-14 and with 697 were -2.94, 1.96 and 2.26, respectively.

In the case of `CN1CC[C@@H](NC(=O)Nc2ccc(C#N)cc2)C[C@@H]1c1nc2ccccc2[nH]1` [Glasdegib] (top concentration 1000 nM), the “selective drug sensitivity score” value in the test with MHH-CALL-3 was determined as 0.7; in the test on MOLT-14, 0; with 697, 0.

For the molecule `CN1CCN(C2CCN(C(=O)Nc3cc(Oc4ccc(NC(=O)C5(C(=O)Nc6ccc(F)cc6)CC5)c(F)c4)ccn3)CC2)CC1` [Golvatinib] (top concentration 2500 nM), the “selective drug sensitivity score” value in the test on MHH-CALL-3 is -0.14; in the test with MOLT-14 it was -0.14; in the test with 697, 1.76.

For the molecule `CC(C)C[C@H](NC(=O)[C@@H](COC(C)(C)C)NC(=O)[C@H](Cc1ccc(O)cc1)NC(=O)[C@H](CO)NC(=O)[C@H](Cc1c[nH]c2ccccc12)NC(=O)[C@H](Cc1cnc[nH]1)NC(=O)[C@@H]1CCC(=O)N1)C(=O)N[C@@H](CCCNC(=N)N)C(=O)N1CCC[C@H]1C(=O)NNC(N)=O` [Goserelin] (top concentration 10000 nM), the “selective drug sensitivity score” value with MHH-CALL-3, in the test with MOLT-14 and with 697 was -0.06 in each case.

In the case of `O=S(=O)(c1cccc2c(O)nccc12)N1CCCNCC1` [Hydroxyfasudil] (top concentration 19000 nM), the “selective drug sensitivity score” value with MHH-CALL-3 was 3.88; in the test on MOLT-14 it was -0.92; in the test with 697 it was 1.18.

Regarding `COc1cc(C(=O)O)ccc1NC(=O)[C@@H]1N[C@@H](CC(C)(C)C)[C@](C#N)(c2ccc(Cl)cc2F)[C@H]1c1cccc(Cl)c1F` [Idasanutlin] (top concentration 10000 nM), the “selective drug sensitivity score” value in the test with MHH-CALL-3 amounted to 21.9; with MOLT-14 it was 15.6; in the test on 697 it was 16.8.

In the case of `CCN1CCN(c2ccc(Nc3cc(N(C)C(=O)Nc4c(Cl)c(OC)cc(OC)c4Cl)ncn3)cc2)CC1` [Infigratinib] (top concentration 1000 nM), the “selective drug sensitivity score” value in the test with MHH-CALL-3, in the test with MOLT-14 and in the test with 697 was 0 throughout.

As for `O=C(Nc1cnn2ccc(N3CCC[C@@H]3c3cc(F)ccc3F)nc12)N1CC[C@H](O)C1` [Larotrectinib] (top concentration 1000 nM), the “selective drug sensitivity score” value with MHH-CALL-3, in the test on MOLT-14 and in the test with 697 was -0.62 each time.

For the molecule `C[C@]1(O)C[C@@H](c2nc(-c3ccc4ccc(-c5ccccc5)nc4c3)c3c(N)nccn32)C1` [Linsitinib] (top concentration 10000 nM), the entries for the “selective drug sensitivity score” value in the test on MHH-CALL-3, with MOLT-14 and in the test on 697 were -3.18, -3.18 and -2.68, respectively.

For `O=C(O)CC[C@H]1CC[C@@](c2cc(F)ccc2F)(S(=O)(=O)c2ccc(Cl)cc2)CC1` [MK-0752] (top concentration 1000 nM), the “selective drug sensitivity score” value in the test with MHH-CALL-3, with MOLT-14 and with 697 was 0 each time.

Regarding `CNC(=O)[C@@H](NC(=O)[C@H](CC(C)C)[C@H](O)C(=O)NO)C(C)(C)C` [Marimastat] (top concentration 10000 nM), the “selective drug sensitivity score” value with MHH-CALL-3 is -1.28; with MOLT-14 it was 2.92; in the test with 697, -0.68.

Regarding `Clc1ccc(C(c2ccccc2Cl)C(Cl)Cl)cc1` (stereo not given) [Mitotane] (top concentration 10000 nM), the “selective drug sensitivity score” value with MHH-CALL-3 was -0.08; in the test on MOLT-14, 0.32; in the test with 697, -0.08.

Take `CCS(=O)(=O)Nc1ccc(Oc2ccc(F)cc2F)c(-c2cn(C)c(=O)c3[nH]ccc23)c1` [Mivebresib] (top concentration 10000 nM): the “selective drug sensitivity score” value was found to be 17.2 in the test on MHH-CALL-3, 2.7 in the test on MOLT-14 and 16.5 with 697.

`CN1C(=O)N[C@H](Cc2c[nH]c3c(Cl)cccc23)C1=O` [Necrostatin_2] (top concentration 10000 nM): the “selective drug sensitivity score” value in the test with MHH-CALL-3, in the test with MOLT-14 and in the test with 697 was -0.08 throughout.

Consider `O=c1ncn2nc(Sc3ccc(F)cc3F)ccc2c1-c1c(Cl)cccc1Cl` [Neflamapimod] (top concentration 10000 nM), for which the figures for the “selective drug sensitivity score” value in the test with MHH-CALL-3, in the test on MOLT-14 and with 697 were 0, 0 and 2.9, respectively.

With `CC(O)c1cc(C(=O)N[C@@H](C)Cn2ccc(-c3ccc(C#N)c(Cl)c3)n2)n[nH]1` (stereo not given in full) [ODM-201] (top concentration 2500 nM), the “selective drug sensitivity score” value in the test on MHH-CALL-3 was found to be 0.82; in the test on MOLT-14 it was 0.82; in the test on 697 it was 0.12.

For the molecule `C=CC(=O)Nc1cccc(Oc2nc(Nc3ccc(N4CCN(C)CC4)cc3)nc3ccsc23)c1` [Olmutinib] (top concentration 1000 nM), the “selective drug sensitivity score” value in the test with MHH-CALL-3, in the test on MOLT-14 and in the test with 697 was -0.02 in each case.

On to `C=CC(=O)Nc1cc(Nc2nccc(-c3cn(C)c4ccccc34)n2)c(OC)cc1N(C)CCN(C)C` [Osimertinib] (top concentration 2500 nM), for which the “selective drug sensitivity score” value in the test on MHH-CALL-3 was -4.62; with MOLT-14, 0.08; in the test with 697 it was -1.42.

Consider `O=C(Nc1cc(Cl)cc2c1[nH]c1cnccc12)c1cccnc1` [PS-1145] (top concentration 25000 nM), for which the “selective drug sensitivity score” value is -0.46 in the test with MHH-CALL-3, -0.46 in the test on MOLT-14 and 0.44 with 697.

Consider `CC(=O)O[C@H]1C(=O)[C@@]2(C)[C@H]([C@H](OC(=O)c3ccccc3)[C@]3(O)C[C@H](OC(=O)[C@H](O)[C@@H](NC(=O)c4ccccc4)c4ccccc4)C(C)=C1C3(C)C)[C@]1(OC(C)=O)CO[C@@H]1C[C@@H]2O` [Paclitaxel] (top concentration 1000 nM), for which the “selective drug sensitivity score” value in the test with MHH-CALL-3 was found to be 5.24; in the test with MOLT-14, 19; in the test on 697, 22.4.

In the case of `CCCCCCCCCCCCCCCCCCOP(=O)([O-])OC1CC[N+](C)(C)CC1` [Perifosine] (top concentration 2500 nM), the “selective drug sensitivity score” value in the test with MHH-CALL-3, with MOLT-14 and with 697 was -0.36 in each case.

For `CC[C@@H]1C(=O)OC[C@@H]1Cc1cncn1C` [Pilocarpine] (top concentration 40000 nM), the “selective drug sensitivity score” value is -1.56 with MHH-CALL-3, -0.36 with MOLT-14 and -1.56 in the test on 697.

As to `Nc1cccc2c1C(=O)N(C1CCC(=O)NC1=O)C2=O` (stereo not given) [Pomalidomide] (top concentration 10000 nM), the “selective drug sensitivity score” value is -0.26 in the test on MHH-CALL-3, -0.26 in the test on MOLT-14 and 1.74 in the test with 697.

Regarding `Cc1nc(=O)c2cc(CN(C)c3ccc(C(=O)N[C@@H](CCC(=O)O)C(=O)O)s3)ccc2[nH]1` [Raltitrexed] (top concentration 1000 nM), the entries for the “selective drug sensitivity score” value in the test on MHH-CALL-3, with MOLT-14 and in the test on 697 were 9.92, 17.7 and 25.8, respectively.

Turning to `C=CC(=O)Nc1cccc(Nc2nc(Nc3ccc(N4CCN(C(C)=O)CC4)cc3OC)ncc2C(F)(F)F)c1` [Rociletinib] (top concentration 10000 nM), the “selective drug sensitivity score” value in the test with MHH-CALL-3 is -1.06; in the test on MOLT-14, 2.54; with 697, 3.54.

As for `CC(C)N(CCCNC(=O)Nc1ccc(C(C)(C)C)cc1)C[C@H]1O[C@@H](n2cc(Br)c3c(N)ncnc32)[C@H](O)[C@@H]1O` [SGC0946] (top concentration 10000 nM), the results for the “selective drug sensitivity score” value in the test with MHH-CALL-3, in the test with MOLT-14 and in the test with 697 were -1.12, -0.02 and -0.02, respectively.

As to `CC[C@H](CO)Nc1nc(NCc2ccccc2)c2ncn(C(C)C)c2n1` [Seliciclib] (top concentration 10000 nM), the “selective drug sensitivity score” value was -1.04 with MHH-CALL-3, -1.04 with MOLT-14 and 1.16 with 697.

`CN1CCN(C(=O)c2ccc3cc(CCNc4ncnc5ccc(C#N)cc45)ccc3c2)CC1` [Senexin_B] (top concentration 1000 nM): the “selective drug sensitivity score” value in the test with MHH-CALL-3 is -0.1; in the test with MOLT-14, 2.1; in the test with 697, 2.1.

For `Clc1ccccc1C(c1ccccc1)(c1ccccc1)n1cccn1` [TRAM-34] (top concentration 1000 nM), the “selective drug sensitivity score” value in the test with MHH-CALL-3, in the test on MOLT-14 and in the test on 697 was -0.08 each time.

`C=CC[C@@H]1/C=C(\C)C[C@H](C)C[C@H](OC)[C@H]2O[C@@](O)(C(=O)C(=O)N3CCCC[C@H]3C(=O)O[C@H](/C(C)=C/[C@@H]3CC[C@@H](O)[C@H](OC)C3)[C@H](C)[C@@H](O)CC1=O)[C@H](C)C[C@@H]2OC` [Tacrolimus] (top concentration 10000 nM): the figures for the “selective drug sensitivity score” value with MHH-CALL-3, in the test on MOLT-14 and in the test with 697 were 33.9, 1.38 and 2.88, respectively.

With `CCN(c1cc(-c2ccc(CN3CCOCC3)cc2)cc(C(=O)NCc2c(C)cc(C)[nH]c2=O)c1C)C1CCOCC1` [Tazemetostat] (top concentration 10000 nM), the “selective drug sensitivity score” value was -0.08 in the test with MHH-CALL-3, 0.32 with MOLT-14 and 0.32 with 697.

As for `COc1cc2c(Nc3ccc(Cl)c(Cl)c3F)ncnc2cc1OC[C@@H]1C[C@@H]2CN(C)C[C@@H]2C1` [Tesevatinib] (top concentration 1000 nM), the “selective drug sensitivity score” value in the test with MHH-CALL-3 is 3.64; in the test on MOLT-14, -0.56; with 697, -0.66.

Take `O=C1CCC(N2C(=O)c3ccccc3C2=O)C(=O)N1` (stereo not given) [Thalidomide] (top concentration 10000 nM): the “selective drug sensitivity score” value in the test on MHH-CALL-3, in the test on MOLT-14 and in the test with 697 was -0.14 each time.

On to `O=C1NC(=O)[C@@H](c2cn3c4c(cccc24)CCC3)[C@@H]1c1c[nH]c2ccccc12` [Tivantinib] (top concentration 1000 nM), for which the “selective drug sensitivity score” value worked out at 0.78 in the test on MHH-CALL-3, 3.18 in the test with MOLT-14 and 5.18 with 697.

As to `C[C@@H]1CCN(C(=O)CC#N)C[C@@H]1N(C)c1ncnc2[nH]ccc12` [Tofacitinib] (top concentration 5000 nM), the entries for the “selective drug sensitivity score” value in the test with MHH-CALL-3, with MOLT-14 and in the test on 697 were -7.86, -7.66 and -6.86, respectively.
